This is an account of results in US6465491B2, “6-phenylpyridyl-2-amine derivatives” (Pfizer Inc., priority 1996, dated 2002).

Structures are written as SMILES. Counter-ions that a name gives are not always drawn.

One may read the melting point as the temperature, or range, at which the solid turns liquid.

Consider `CN1CCN(CCc2ccc(-c3cccc(N)n3)cc2)CC1` (as salt: hydrochloride) [Example 109, 6-{4-[2-(4-Methyl-piperazin-1-yl)-ethyl]-phenyl}-pyridin-2-ylamine], for which the melting point is 170 °C (dec.). Then `Cl.Nc1cccc(-c2ccc(CCN3CC4C(C3)C4NCCCc3ccccc3)cc2)n1` (stereo not drawn), with 160 to 163 °C. Then `Nc1cccc(-c2ccc(CCNC3CC4CCC(C3)N4Cc3ccccc3)cc2)n1` (stereo not drawn) (as salt: hydrochloride), with 260 °C (dec.); and `Nc1cccc(-c2ccc(CCNC3CC4COCC(C3)N4)cc2)n1` (stereo not drawn) (as salt: hydrochloride) [104], with 100 °C (dec.); and `Nc1cccc(-c2ccc(CCNC3Cc4ccccc4C3)cc2)n1` (as salt: hydrochloride) [Example 117, 6-{4-[2-(Indan-2-ylamino)-ethyl]-phenyl}-pyridin-2-ylamine], with 60 to 70 °C (dec.). The value for `Nc1cccc(-c2ccc(CCN3CCC(N)(C(=O)NCCc4ccccc4)CC3)cc2)n1` (as salt: hydrochloride) [Example 79, 4-Amino-1-{2-[4-(6-amino-pyridin-2-yl)-phenyl]-ethyl}-piperidine-4-carboxylic acid phenethyl-amide] was 215 to 219 °C (dec.). `Nc1cccc(-c2ccc(CCN3CCC(N)CC3)cc2)n1` (as salt: trifluoroacetate) [Example 67, 6-{4-[2-(4-Amino-piperidin-1-yl)-ethyl]-phenyl}-pyridin-2-ylamine] yielded a melting point of 190 to 195 °C. The value for `Nc1cccc(-c2ccc(CCNC3C4CCCC3CN(Cc3ccccc3)C4)cc2)n1` (stereo not drawn) (as salt: hydrochloride) [Example 84, {2-[4-(6-Amino-pyridin-2-yl)-phenyl]-ethyl}-(3-benzyl-3-aza-bicyclo[3.3.1]non-9-yl)-amine] was 190 °C (dec.); that for `Nc1cccc(-c2ccc(CCN3CC4CCC(C3)C4N)cc2)n1` (stereo not drawn) (as salt: hydrochloride) was 235 °C (dec.). Then `Nc1cccc(-c2ccc(CCN3CCN(c4nc(-c5ccccc5)cs4)CC3)cc2)n1` [Example 15, 6-(4-{2-[4-(4-Phenyl-thiazol-2-yl)-piperazin-1-yl]-ethyl}-phenyl)-pyridin-2-ylamine], with 158 to 161 °C. Then `CC(C)CN1CCN(CCc2ccc(-c3cccc(N)n3)cc2)CC1` [Example 17, 6-{4-[2-(4-Isobutyl-piperazin-1-yl)-ethyl]-phenyl}-pyridin-2-ylamine], with 85 to 88 °C. On to `Nc1cccc(-c2ccc(CCN(Cc3ccncc3)Cc3ccncc3)cc2)n1` (as salt: hydrochloride) [Example 120, 6-{4-[2-(Bis-pyridin-4-ylmethyl-amino)-ethyl]-phenyl}-pyridin-2-ylamine], for which the melting point is 150 to 163 °C (dec.). Then `Nc1cccc(-c2ccc(CCN3CCN(C(=O)NCc4ccccc4)CC3)cc2)n1` [Example 47, 4-{2-[4-(6-Amino-pyridin-2-yl)-phenyl]-ethyl}-piperazine-1-carboxylic acid benzylamide], with 172 to 181 °C; and `Nc1cccc(-c2ccc(CCN3CCN(C(=O)NC4CCCCC4)CC3)cc2)n1` [Example 32, 4-{2-[4-(6-Amino-pyridin-2-yl)-phenyl]-ethyl}-piperazine-1-carboxylic acid cyclohexylamide], with 180 to 182 °C. `Nc1cccc(-c2ccc(CCN3CCN(C4CCc5ccccc5C4)CC3)cc2)n1` (stereo not drawn) (as salt: hydrochloride) [Example 55, 6-(4-{2-[4-(1,2,3,4-Tetrahydro-naphthalen-2-yl)-piperazin-1-yl]-ethyl}-phenyl)-pyridin-2-ylamine]: the melting point is above 220 °C. Then `Nc1cccc(-c2ccc(CCN3CCC(N)(C(=O)NCc4ccccc4)CC3)cc2)n1` (as salt: hydrochloride) [Example 59, 4-Amino-1{-2-[4-(6-amino-pyridin-2-yl)-phenyl]-ethyl}-piperidine-4-carboxylic acid benzylamide], with > 240 °C (dec.); and `Nc1cccc(-c2ccc(CCN3CCC(NC(=O)NC4CCCCC4)C3)cc2)n1` (stereo not drawn) (as salt: hydrochloride) [Example 74, 1-(1-{2-[4-(6-Amino-pyridin-2-yl)-phenyl]-ethyl}-pyrrolidin-3-yl)-3-cyclohexyl-urea], with 120 °C (dec.). Consider `CN(C)C1CCN(CCc2ccc(-c3cccc(N)n3)cc2)CC1` [Example 21, 6-{4-[2-(4-Dimethylamino-piperidin-1-yl)-ethyl]-phenyl}-pyridin-2-ylamine], for which the melting point lay in the range of 174 to 176 °C. Then `Nc1cccc(-c2ccc(CNC3Cc4ccccc4C3)cc2)n1` (as salt: hydrochloride) [Example 139, 6-[4-(Indan-2-ylaminomethyl)-phenyl]-pyridin-2-ylamine], with 185 to 187 °C.

`CC(Cc1ccccc1)N1CCN(CCc2ccc(-c3cccc(N)n3)cc2)CC1` (stereo not drawn) (as salt: hydrochloride) [Example 54, 6-(4-{2-[4-(1-Methyl-2-phenyl-ethyl)-piperazin-1-yl]-ethyl}-phenyl)-pyridin-2-ylamine] came in with a melting point of 252 to 256 °C. For `Nc1cccc(-c2ccc(CN3CC4C(N)C4C3)cc2)n1` (stereo not drawn) (as salt: hydrochloride), the melting point was 189 to 192 °C (dec.).

Consider `Nc1cccc(-c2ccc(CCNC34CC5CC(CC(C5)C3)C4)cc2)n1` (as salt: hydrochloride) [Example 115, 6-{4-[2-(Adamantan-1-ylamino)-ethyl]-phenyl}-pyridin-2-ylamine], for which the melting point is 200 to 220 °C (dec.). The value for `Nc1cccc(-c2ccc(CCN3CCN(CCc4ccc(F)cc4)CC3)cc2)n1` [Example 53, 6-[4-(2-{4-[2-(4-Fluoro-phenyl)-ethyl]-piperazin-1-yl}-ethyl)-phenyl]-pyridin-2-ylamine] was 165 to 167 °C; that for `Nc1cccc(-c2ccc(CCN3CC4C(C3)C4NC(=O)Cc3ccc(F)cc3)cc2)n1` (stereo not drawn) [Example 38, N-(3-{2-[4-(6-Amino-pyridin-2-yl)-phenyl]-ethyl}-3-aza-bicyclo[3.1.0]hex-6-yl)-2-(4-fluoro-phenyl)-acetamide] was 161 to 163 °C; that for `Nc1cccc(-c2ccc(CCNC3C4CC5CC(C4)CC3C5)cc2)n1` (stereo not drawn) (as salt: hydrochloride) [Example 116, 6-{4-[2-(Adamantan-2-ylamino)-ethyl]-phenyl}-pyridin-2-ylamine] was 215 to 230 °C (dec.). `Nc1cccc(-c2ccc(CCN3CCN(c4nnnn4-c4ccccc4)CC3)cc2)n1` [Example 27, 6-(4-{2-[4-(1 -Phenyl-1H-tetrazol-5-yl)-piperazin-1-yl]-ethyl}-phenyl)-pyridin-2-ylamine] had a melting point of 212 to 214 °C. Then `Nc1cccc(-c2ccc(CCN3CCC(C(c4ccccc4)c4ccccc4)CC3)cc2)n1` (as salt: hydrochloride) [Example 90, 6-{4-[2-(4-Benzhydryl-piperidin-1-yl)-ethyl]-phenyl}-pyridin-2-ylamine], with 175 °C (dec.); and `Nc1cccc(-c2ccc(CCN3CCN(C(=O)COc4ccccc4)CC3)cc2)n1`, with 127 to 130 °C. Then `Nc1cccc(-c2ccc(CCN3CCC(c4ccccc4)C3)cc2)n1` (stereo not drawn) (as salt: hydrochloride) [Example 26, 6-{4-[2-(3-Phenyl-pyrrolidin-1-yl)-ethyl]-phenyl}-pyridin-2-ylamine], with 100 °C (dec.).

`Nc1cccc(-c2ccc(CCN3CCC(NC(=O)NCc4ccccc4)C3)cc2)n1` (stereo not drawn) (as salt: hydrochloride) [Example 73, 1-(1-{2-[4-(6-Amino-pyridin-2yl)-phenyl]-ethyl}-pyrrolidin-3-yl)-3-benzyl-urea]: the melting point is 90 °C (dec.). On to `CN(Cc1ccc(-c2cccc(N)n2)cc1)C1CCCCC1` (as salt: hydrochloride) [Example 136, 6-{4-[(Cyclohexyl-methyl-amino)-methyl]-phenyl}-pyridin-2-ylamine], for which the melting point was above 250 °C. Then `Nc1cccc(-c2ccc(CCN3CCN(C(=O)C4CCCC4)CC3)cc2)n1` [Example 13, (4-{2-[4-(6-Amino-pyridin-2-yl)-phenyl]-ethyl}-piperazin-1-yl)-cyclopentyl-methanone], with 185 to 187 °C. The value for `CC(=O)N(CCc1ccc(-c2cccc(N)n2)cc1)C1CCN(Cc2ccccc2)CC1` (as salt: hydrochloride) was 60 to 70 °C (dec.); that for `Nc1cccc(-c2ccc(CCN3CCN(C(=O)c4ccccc4)CC3)cc2)n1` [Example 25, (4-{2-[4-(6-Amino-pyridin-2-yl)-phenyl]-ethyl}-piperazin-1-yl)-phenyl-methanone] was 125 to 127 °C; that for `Nc1cccc(-c2ccc(CNCCc3ccccc3)cc2)n1` (as salt: hydrochloride) [Example 135, 6-[4-(Phenethylamino-methyl)-phenyl]-pyridin-2-ylamine] was 236 to 238 °C. Then `Nc1cccc(-c2ccc(CCNCCc3ccccc3)cc2)n1` (as salt: hydrochloride) [Example 35, 6-[4-(2-Phenethylamino-ethyl)-phenyl]-pyridin-2-ylamine], with 212 to 215 °C. Take `COc1ccc(NC(=O)N2CCN(CCc3ccc(-c4cccc(N)n4)cc3)CC2)cc1` [Example 31, 4-{2-[4-(6-Amino-pyridin-2-yl)-phenyl]-ethyl}-piperazine-1-carboxylic acid (4-methoxy-phenyl)-amide]: the melting point was 182 to 184 °C. On to `Nc1cccc(-c2ccc(CCN3CCN(C(c4ccccc4)c4ccccc4)CC3)cc2)n1` (as salt: hydrochloride) [Example 89, 6-{4-[2-(4-Benzhydryl-piperazin-1-yl)-ethyl]-phenyl}-pyridin-2-ylamine], for which the melting point was 170 °C (dec.). `Nc1cccc(-c2ccc(CCN(CC3CCCCC3)CC3CCCCC3)cc2)n1` (as salt: salt) [Example 124, 6-{4-[2-(Bis-cyclohexylmethyl-amino)-ethyl]-phenyl}-pyridin-2-ylamine] gave a melting point of 75 to 85 °C.
